In patent US10358434B2, “2-(3-pyridinyl)-1H-benzimidazole derivative compound and medicament containing same” (NIHON MEDI-PHYSICS CO., LTD., priority 2014, dated 2019):

Key:
[1] = test system: human adrenal gland section expressing aldosterone-producing adenoma; assay: In vitro autoradiography using human adrenal adenoma; format: binding
Text: From adrenal gland excised from a human patient for treatment of primary aldosteronism, a portion containing aldosterone-producing adenoma was removed and was then frozen. The frozen adrenal gland was embedded in an embedding agent for production of a frozen tissue section (Tissue-Tek O.C.T. Compound, Sakura Finetek Japan). Using a freezing microtome (CM3050S, Leica Microsystems), a 7-μm thin slice section, which is schematically shown in FIGS. 17(a) and 17(b), was produced, and was preserved at −20° C. before use. In FIGS. 17, 71a and 71b indicate aldosterone-producing adenomas, 72a and 72b indicate normal adrenal cortexes, and 73a and 73b indicate normal adrenal medullas. A 5-33 kBq/mL solution was prepared by adding a suitable amount of each of Compounds [^18F] 100, [^18F] 200, [^123I] 400, [^18F] 500, and [^123I] 601 to [^123I] 610, which were obtained by the methods described in Examples 2, 4, 7, 9, 11, 13, 15, 17, 19, 21, 23, 25, 27, and 29, or [^123I] IMTO to a phosphate-buffered physiological saline containing 1 w/v % bovine serum albumin (not containing fatty acid). The radioactivity concentration was measured using an autowell gamma system (ARC-7001, manufactured by Hitachi Aloka Medical, Ltd.). The section was immersed in the obtained sample solution for 10 minutes. For Compounds [^18F] 100, [^18F] 200, [^123I] 400, [^18F] 500, [^123I] 601 and [^123I] 602, the section shown in FIG. 17(a) was used, and for Compounds […] [^123I] IMTO, both sections shown in FIGS. 17(a) and (b) were used. Each sample solution was washed off, and the section was then exposed to an imaging plate (BAS-SR2040, manufactured by FUJIFILM Holdings Corporation) (IP) for 16-20 hours, and thereafter, an autoradiogram was obtained using a fluoro-image analyzer (FLA-7000, manufactured by FUJIFILM Holdings Corporation).
In order to quantitatively compare differences between images caused by ^123I and ^18F nuclides, a correction was made by calculating accumulation of radioactivity within the range of a region of interest (ROI) by means of integral calculation based on half-life, added radioactivity and IP contact time.
610. FIG. 18(b), FIG. 19(b), FIG. 20(b), FIG. 21(b), FIG. 22(a), FIG. 23(a), FIG. 24(a), FIG. 25(a), FIG. 26(a), FIG. 27(a), FIG. 28(a), FIG. 29(a), FIG. 30(a), and FIG. 31(a) each show an autoradiogram of [^123I] IMTO. […] 100, [^18F] 200, [^123I] 400, [^18F] 500, and [^123I] 601 to [^123I] […] The ROI having the same area as each other was established in a normal site and in a site in which aldosterone-producing adenoma had developed. Then, the PSL value (B1) indicating accumulation of radioactivity in the sites of normal adrenal cortexes 72a and 72b was compared with the PSL value (B2) indicating accumulation of radioactivity in the sites of aldosterone-producing adenomas 71a and 71b. In Table 7, the B1, B2 and B2/B1 values of [^18F] 100 indicate the mean values for the number of tests (n), respectively.

[2] = In vivo kinetics experiment (radioactivity distribution); design: species or system Wistar male rat; conditions: rat i.v., mean ± SD
Description: Each of Compounds [^18F] 100, [^18F] 200, [^123I] 400, [^18F] 500, and [^123I] 601 to 610 obtained by the methods described in Examples 2, 4, 7, 9, 11, 13, 15, 17, 19, 21, 23, 25, 27, and 29, or [^123I] IMTO, was diluted with a physiological saline containing 1 w/v % ascorbic acid to prepare a solution to be administered. The above described compound (approximately 1 to 3.7 MBq) was injected into the caudal vein of a Wistar male rat (9 weeks old) under anesthesia with a mixed gas of isoflurane/air, and ten minutes after the injection, the rat was sacrificed by exsanguination. From the thus sacrificed rat, blood and organs (heart, lung, stomach, liver, spleen, small intestine, large intestine, kidney, bladder (including urine), muscle (lower limbs), brain, adrenal gland, testis, fat, femur, or thyroid gland) were excised, and the weights thereof were then measured. Thereafter, radioactivity was measured in the blood, the individual excised organs, and the remaining whole body. Further, 30 and 60 minutes after the administration, the same operations as those described above were carried out. […] The symbol “n” in Tables 9 to 23 indicates the number of rats used. In addition, Tables 9 to 23 also show the ratio of radioactivity accumulation in adrenal grand (% ID/g) to radioactivity accumulation in each of blood, liver, kidney, small intestine, muscle and fat (% ID/g).

## COC(=O)c1cncn1[C@H](C)c1ccc(I)cc1 [[^123I] IMTO, (R)-[^123I]iodometomidate, reference compound]
[1]; FIGS. 18 to 31
  accumulation of radioactivity in adrenal gland section (autoradiogram): accumulation of radioactivity was observed in the entire adrenal gland section
[1]; section of FIG. 17(a)
  B2/B1 accumulation ratio: 0.84
[1]; section of FIG. 17(a), site 71a
  B2 (PSL value, aldosterone-producing adenoma): 7863
[1]; section of FIG. 17(a), site 72a
  B1 (PSL value, normal adrenal cortex): 9415
[1]; section of FIG. 17(b)
  B2/B1 accumulation ratio: 0.79
[1]; section of FIG. 17(b), site 71b
  B2 (PSL value, aldosterone-producing adenoma): 6649
[1]; section of FIG. 17(b), site 72b
  B1 (PSL value, normal adrenal cortex): 8453
[2]; 10 min after administration
  Adrenal gland/blood ratio of radioactivity accumulation: 15.93 ± 4.94
  Adrenal gland/kidney ratio of radioactivity accumulation: 31.76 ± 10.16
  Adrenal gland/liver ratio of radioactivity accumulation: 6.72 ± 2.00
  Adrenal gland/muscle ratio of radioactivity accumulation: 126.18 ± 54.27
  Adrenal gland/small intestine ratio of radioactivity accumulation: 35.65 ± 9.43
  Radioactivity distribution Adrenal gland: 22.14 ± 6.98 % ID/g
  Radioactivity distribution Bladder (including urine): 0.25 ± 0.27 % ID/g
  Radioactivity distribution Blood: 1.40 ± 0.13 % ID/g
  Radioactivity distribution Heart: 0.48 ± 0.07 % ID/g
  Radioactivity distribution Kidney: 0.70 ± 0.01 % ID/g
  Radioactivity distribution Large intestine: 0.10 ± 0.02 % ID/g
  Radioactivity distribution Liver: 3.29 ± 0.08 % ID/g
  Radioactivity distribution Lung: 0.72 ± 0.05 % ID/g
  Radioactivity distribution Muscle (lower limbs): 0.18 ± 0.05 % ID/g
  Radioactivity distribution Remaining whole body: 0.29 ± 0.00 % ID/g
  Radioactivity distribution Small intestine: 0.62 ± 0.03 % ID/g
  Radioactivity distribution Spleen: 0.30 ± 0.02 % ID/g
  Radioactivity distribution Stomach: 0.52 ± 0.18 % ID/g
  Radioactivity distribution Testis: 0.52 ± 0.08 % ID/g
  Radioactivity distribution Thyroid gland: 1.30 ± 1.05 % ID/g
  Radioactivity distribution Whole brain: 0.30 ± 0.02 % ID/g
[2]; 30 min after administration
  Adrenal gland/blood ratio of radioactivity accumulation: 6.84 ± 2.49
  Adrenal gland/kidney ratio of radioactivity accumulation: 16.66 ± 8.95
  Adrenal gland/liver ratio of radioactivity accumulation: 9.74 ± 4.16
  Adrenal gland/muscle ratio of radioactivity accumulation: 97.10 ± 32.37
  Adrenal gland/small intestine ratio of radioactivity accumulation: 25.49 ± 8.31
  Radioactivity distribution Adrenal gland: 17.66 ± 7.43 % ID/g
  Radioactivity distribution Bladder (including urine): 0.39 ± 0.08 % ID/g
  Radioactivity distribution Blood: 2.55 ± 0.16 % ID/g
  Radioactivity distribution Heart: 0.74 ± 0.03 % ID/g
  Radioactivity distribution Kidney: 1.10 ± 0.12 % ID/g
  Radioactivity distribution Large intestine: 0.12 ± 0.01 % ID/g
  Radioactivity distribution Liver: 1.82 ± 0.04 % ID/g
  Radioactivity distribution Lung: 0.90 ± 0.09 % ID/g
  Radioactivity distribution Muscle (lower limbs): 0.18 ± 0.02 % ID/g
  Radioactivity distribution Remaining whole body: 0.31 ± 0.03 % ID/g
  Radioactivity distribution Small intestine: 0.68 ± 0.06 % ID/g
  Radioactivity distribution Spleen: 0.43 ± 0.04 % ID/g
  Radioactivity distribution Stomach: 0.46 ± 0.11 % ID/g
  Radioactivity distribution Testis: 0.32 ± 0.04 % ID/g
  Radioactivity distribution Thyroid gland: 0.81 ± 0.16 % ID/g
  Radioactivity distribution Whole brain: 0.18 ± 0.02 % ID/g
[2]; 60 min after administration
  Adrenal gland/blood ratio of radioactivity accumulation: 6.73 ± 2.57
  Adrenal gland/kidney ratio of radioactivity accumulation: 18.20 ± 8.58
  Adrenal gland/liver ratio of radioactivity accumulation: 14.20 ± 5.28
  Adrenal gland/muscle ratio of radioactivity accumulation: 120.14 ± 30.92
  Adrenal gland/small intestine ratio of radioactivity accumulation: 24.59 ± 8.26
  Radioactivity distribution Adrenal gland: 19.70 ± 8.14 % ID/g
  Radioactivity distribution Bladder (including urine): 0.68 ± 0.30 % ID/g
  Radioactivity distribution Blood: 2.91 ± 0.09 % ID/g
  Radioactivity distribution Heart: 0.77 ± 0.03 % ID/g
  Radioactivity distribution Kidney: 1.10 ± 0.10 % ID/g
  Radioactivity distribution Large intestine: 0.14 ± 0.02 % ID/g
  Radioactivity distribution Liver: 1.37 ± 0.06 % ID/g
  Radioactivity distribution Lung: 1.01 ± 0.03 % ID/g
  Radioactivity distribution Muscle (lower limbs): 0.16 ± 0.02 % ID/g
  Radioactivity distribution Remaining whole body: 0.34 ± 0.01 % ID/g
  Radioactivity distribution Small intestine: 0.79 ± 0.11 % ID/g
  Radioactivity distribution Spleen: 0.39 ± 0.03 % ID/g
  Radioactivity distribution Stomach: 0.41 ± 0.05 % ID/g
  Radioactivity distribution Testis: 0.33 ± 0.02 % ID/g
  Radioactivity distribution Thyroid gland: 1.29 ± 0.25 % ID/g
  Radioactivity distribution Whole brain: 0.11 ± 0.00 % ID/g
